{"source": "patent US8703756B2", "about": "“Synthetic procedure and cancer treatment with cisplatin derivatives” (The Board of Regents of the Nevada System of Higher …, priority 2012, dated 2014)", "key": {"[1]": {"tested_on": "A549 human lung cancer cells", "assay": "MTS cell proliferation assay, A549 lung cancer cells", "format": "cell-based", "conditions": "for effects in this experimental setting: human cancer cell line setting of b48", "experimental": "A series of cisplatin analogs of the formula (4,4′-bis[RO]-2,2′-bipyridine)PtCl2 [where, R=—(CH2)nCH3, —(CH2)nOCH3, —(CH2)n[O(CH2)m]yO(CH2)zCH3 (n=1-10; m, y, z=0-10)] were synthesized and characterized using ^1H NMR, ^13C NMR spectroscopy, and elemental analysis. The antitumor activities of these compounds were examined in a lung cancer cell line (A549) using the MTS cell proliferation assay and the results were compared to that of cisplatin and cisplatin derivatives.\n(§1) Cells were cultured at a density of 2.1×10^3 cells per well in flat bottomed 96-well plates in 100 μl of medium supplemented with 10% fetal bovine serum (FBS), 25 mM HEPES buffer (pH 7.4), Penicillin (100 U/ml) and Streptomycin (100 μg/ml) and incubated at 37° C. in a humidified, 5% CO2 atmosphere for 2 days. The cells were then treated with DMSO or the appropriate drugs for 1 hour, washed thrice with 100 μl phosphate buffered saline (PBS), and incubated in 100 μl of fresh medium. After 2 days, the medium was replace with 120 μl of medium containing 50 μM phenazine ethosulfate (PES) and 317 μg/mL CellTiter 96® Aqueous One Solution Reagent (MTS) (Promega, Madison, Wis.). After 4 hours in culture the cell viability was determined by measuring the absorbance at 490 nm using a Tecan Infinite M1000 plate reader.\nCells were treated with CDDP or the platinum analogs at various concentrations for 1 hour and the viability was determined 48 h post-treatment using the MTS assay.\nCells were treated with CDDP or the platinum analogs at various concentrations for 48 hour and the viability was determined post-treatment using the MTS assay."}, "[2]": {"tested_on": "DU-145 human prostate cancer cells", "assay": "MTS assay, DU-145 prostate cancer cells", "format": "cell-based", "conditions": "DU-145, up to a 1 mM concentration", "experimental": "as §1\n(§2) Cells were treated with CDDP or the platinum analog at various concentrations for 1 hour and the viability was determined 48 h post-treatment using the MTS assay.\n(§3) This is a table comparison of EC50 (μM) determined from MTS assay data of the various cell lines treated with CDDP or the analog where R=(CH2)3CH3."}, "[3]": {"tested_on": "MCF7 human breast cancer cells", "assay": "MTS assay, MCF7 breast cancer cells", "format": "cell-based", "conditions": "MCF7, up to a 1 mM concentration", "experimental": "as §1, §2, §3"}, "[4]": {"tested_on": "T-47D human breast cancer cells", "assay": "MTS assay, T-47D breast cancer cells", "format": "cell-based", "conditions": "up to a 1 mM concentration", "experimental": "as §1, §2, §3"}, "[5]": {"tested_on": "HCC38 human breast cancer cells", "assay": "MTS assay, HCC38 breast cancer cells", "format": "cell-based", "conditions": "HCC38, up to a 1 mM concentration", "experimental": "as §1, §2, §3"}, "[6]": {"tested_on": "MDA-MB-435 human melanoma cancer cells", "assay": "MTS assay, MDA-MB-435 melanoma cancer cells", "format": "cell-based", "conditions": "MDA-MB-435, up to a 1 mM concentration", "experimental": "as §1, §2, §3"}, "[7]": {"conditions": "tested on mice; cited from earlier work"}}, "data": [{"molecule": "N.N.[Cl][Pt][Cl]", "note": "[cisplatin, cis-diamminedichloroplatinum]", "values": [{"measurement": "effectiveness, 48 h treatment", "setting": "[1]; A549, concentrations higher than 500 μM", "value": "not very effective"}, {"measurement": "effects in this experimental setting", "setting": "[1]", "value": "lack of effects"}, {"measurement": "effect on the A549 cells", "setting": "[1]; one hour treatment, up to a 1 mM concentration", "value": "no effect"}, {"measurement": "effect on the cell line", "setting": "[2]", "value": "little or no effect"}, {"measurement": "effect on the cell line", "setting": "[3]", "value": "little or no effect"}, {"measurement": "effect on the cell line", "setting": "[4]", "value": "little or no effect"}, {"measurement": "effect on the cell line", "setting": "[5]", "value": "little or no effect"}, {"measurement": "effect on the cell line", "setting": "[6]", "value": "little or no effect"}, {"measurement": "percent increased life span (% ILS)", "setting": "[7]", "value": "65-80%"}]}, {"molecule": "Pd(II)(cis-2,2′-bipyridine)(NO3)2", "values": [{"measurement": "percent increased life span (% ILS)", "setting": "[7]", "value": "55-70%"}]}, {"molecule": "O=C(O)C(=O)O.[NH-][C@@H]1CCCC[C@H]1[NH-].[Pt+2]", "note": "[oxaliplatin]", "values": [{"measurement": "effects in this experimental setting", "setting": "[1]", "value": "lack of effects"}]}, {"molecule": "N.N.O=C([O-])C1(C(=O)[O-])CCC1.[Pt+2]", "note": "[carboplatin]", "values": [{"measurement": "effects in this experimental setting", "setting": "[1]", "value": "lack of effects"}]}]}
